In brackets after ≈: the same amount, converted by molar mass.
Columns and labels:
[1] = system: Mycobacterium tuberculosis; assay: Antitubercular activity against Mycobacterium tuberculosis H37Ra ATCC 25177 after 4 weeks by Agar-based proportion Assay; format: functional; settings: H37Ra ATCC 25177, 672 h
[2] = Selectivity index, ratio of CC50 for Swiss mouse BMDM to MIC for Mycobacterium tuberculosis H37Ra ATCC 25177
[3] = Cytotoxicity against Swiss mouse BMDM assessed as reduction in cell viability after 24 hrs by MTS assay; format: cell-based; settings: bone marrow-derived macrophages (BMDM)

Row | Structure (SMILES) | MIC [1] | Selectivity Index [2] | CC50 at 24 h [3]
1 | Fc1ccccc1-n1cc(COc2ccc(-c3ccccc3)cc2)nn1 | 0.78 µg/mL (≈ 2.26 µM) | 128 | 100 µg/mL (≈ 290 µM)
2 | CCCCCCCCn1cc(COc2ccc(-c3ccccc3)cc2)nn1 | > 25 µg/mL | – | –
3 | Fc1ccc(-n2cc(COc3ccc(-c4ccccc4)cc3)nn2)cc1Cl | 1.56 µg/mL (≈ 4.11 µM) | 64.1 | 100 µg/mL (≈ 263 µM)
4 | FC(F)Oc1ccc(-n2cc(COc3ccc(-c4ccccc4)cc3)nn2)cc1 | 1.56 µg/mL (≈ 3.97 µM) | – | 100 µg/mL (≈ 254 µM)
5 | c1ccc(-c2ccc(OCc3cn(-c4ccccc4)nn3)cc2)cc1 | > 25 µg/mL | – | –
6 | O=[N+]([O-])c1ccc(-n2cc(COc3ccc(-c4ccccc4)cc3)nn2)cc1 | > 25 µg/mL | – | –
7 | N#Cc1ccc(-n2cc(COc3ccc(-c4ccccc4)cc3)nn2)cc1 | > 25 µg/mL | – | –
8 | Clc1ccc(-n2cc(COc3ccc(-c4ccccc4)cc3)nn2)cc1 | > 25 µg/mL | – | –
9 | FC(F)(F)c1ccc(-n2cc(COc3ccc(-c4ccccc4)cc3)nn2)cc1 | 3.12 µg/mL (≈ 7.89 µM) | 32 | 100 µg/mL (≈ 253 µM)
10 | Fc1ccc(-n2cc(COc3ccc(-c4ccccc4)cc3)nn2)cc1 | > 25 µg/mL | – | –
11 | Fc1ccc(-n2cc(COc3ccc(-c4ccccc4)cc3)nn2)cc1F | 3.12 µg/mL (≈ 8.59 µM) | 32 | 100 µg/mL (≈ 275 µM)
12 | COc1ccc(-n2cc(COc3ccc(-c4ccccc4)cc3)nn2)cc1 | > 25 µg/mL | – | –
13 | CC(=O)OCCn1cc(COc2ccc(-c3ccccc3)cc2)nn1 | 1.56 µg/mL (≈ 4.62 µM) | 64.1 | 100 µg/mL (≈ 296 µM)
14 | NNC(=O)c1ccncc1 [ISONIAZID] | 0.025 µg/mL (≈ 0.182 µM) | 4000 | 100 µg/mL (≈ 729 µM)
15 | Brc1ccc(-n2cc(COc3ccc(-c4ccccc4)cc3)nn2)cc1 | > 25 µg/mL | – | –
16 | O=[N+]([O-])c1ccc(Cn2cc(COc3ccc(-c4ccccc4)cc3)nn2)cc1 | > 25 µg/mL | – | –
17 | CC[C@@H](CO)NCCN[C@@H](CC)CO [ETHAMBUTOL] | 2 µg/mL (≈ 9.79 µM) | 50 | 100 µg/mL (≈ 489 µM)
18 | c1ccc(CCn2cc(COc3ccc(-c4ccccc4)cc3)nn2)cc1 | > 25 µg/mL | – | –
19 | c1ccc(Cn2cc(COc3ccc(-c4ccccc4)cc3)nn2)cc1 | > 25 µg/mL | – | –

Source: ChEMBL document CHEMBL4052769, “Synthesis and biological evaluation of novel 1,2,3-triazole derivatives as anti-tubercular agents” (Bioorg Med Chem Lett, 2017)
